We go through 27 compounds from US8273890B2 (4SC AG, priority 2007, dated 2012).

For orientation: IC50 means the concentration that inhibits the measured activity by half.

The target of this assay is T1, recombinant Plk1 protein (Homo sapiens, UniProt P53350).
T1 construct: histidine tag (N); made in house; host or cells: SF9 insect cells
T1 sequence (P53350 whole entry): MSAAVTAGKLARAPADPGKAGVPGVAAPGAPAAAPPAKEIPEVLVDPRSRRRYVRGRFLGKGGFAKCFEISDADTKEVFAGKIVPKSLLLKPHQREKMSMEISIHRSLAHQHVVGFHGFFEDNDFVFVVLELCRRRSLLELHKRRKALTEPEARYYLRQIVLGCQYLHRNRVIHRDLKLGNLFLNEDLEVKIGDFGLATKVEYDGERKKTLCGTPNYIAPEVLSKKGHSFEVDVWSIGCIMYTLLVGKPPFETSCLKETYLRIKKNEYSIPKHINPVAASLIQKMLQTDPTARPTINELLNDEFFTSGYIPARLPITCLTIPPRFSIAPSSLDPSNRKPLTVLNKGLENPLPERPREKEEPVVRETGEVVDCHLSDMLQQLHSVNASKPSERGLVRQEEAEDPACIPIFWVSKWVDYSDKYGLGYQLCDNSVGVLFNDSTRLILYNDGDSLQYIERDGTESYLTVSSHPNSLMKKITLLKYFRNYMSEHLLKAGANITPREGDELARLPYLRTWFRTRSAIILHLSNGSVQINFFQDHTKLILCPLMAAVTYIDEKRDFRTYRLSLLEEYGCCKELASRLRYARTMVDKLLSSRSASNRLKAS
Briefly: Plk1 kinase activity inhibition assay (33P-ATP, alpha casein substrate, flash plates). Format: biochemical. The settings on record: enzymatic assay, 100 nM Li-ATP, 80 minutes at 30° C. How it is done:
The inhibition of Plk1 kinase activity can be measured using recombinant Plk1 protein expressed as an N-terminally histidine-tagged protein in SF9 insect cells and alpha casein as substrate. The Plk1 assay is run in 96 well plates by incubating 50 to 100 ng per well recombinant Plk1, 500 ng per well alpha casein (Sigma, # C-6780) as substrate, 10 μl of compound of invention (test compounds were dissolved as 20 mM solutions in dimethylsulfoxide (DMSO) and subsequently diluted), and 100 nM Li-ATP (including ^33P-ATP) in 100 μl of reaction buffer ([…] HEPES, pH 7.5; 3 mM MgCl2; 3 mM MnCl2; 3 μM Na-Orthovanadat; 1 mM DTT; 1 μg/ml PEG 8000) for 80 minutes at 30° C. The reactions are terminated by adding 100 μl stopping buffer (2% H3PO4 for 5 minutes) and are washed 3 times with washing solution (0.9% NaCl). Determining ^33P incorporated into the protein substrate alpha casein, the detection is based on the adhesion of the phosphorylated protein to the surface of scintillator-coated flash plates (Perkin Elmer, USA; #SMP-200). Phosphorylation of alpha casein is measured by counting the radioactivity bound to the plate for 60 sec. using a plate reader (Perkin Elmer, USA; Wallac Microbeta). By this method, the IC50 value of the Plk1 inhibition is determined as described above.
With `COc1cc2c(cn1)ncn2-c1cc(OCc2ccccc2C(F)(F)F)c(C(N)=O)s1` [Example 16, 5-(6-Methoxy-1H-imidazo[4,5-c]pyridin-1-yl)-3-{[2-(trifluoromethyl)benzyl]oxy}thiophene-2-carboxamide], the IC50 was 10 to 100 nM. The same measure for `NC(=O)c1sc(-n2cnc3cnccc32)cc1OCc1ccccc1F` [Example 40, 3-[(2-fluorobenzyl)oxy]-5-(1H-imidazo[4,5-c]pyridin-1-yl)thiophene-2-carboxamide]: 10 to 100 nM; for `Cc1ccccc1C(C)Oc1cc(-n2cnc3cnc(CO)cc32)sc1C(N)=O` (stereo not drawn) [Example 110, 5-[6-(hydroxymethyl)-1H-imidazo[4,5-c]pyridin-1-yl]-3-[1-(2-methylphenyl)ethoxy]thiophene-2-carboxamide]: under 10 nM. For `NC(=O)c1sc(-n2cnc3cnc(CO)cc32)cc1OCc1ccccc1C(F)(F)F` [Example 9, 5-[6-(Hydroxymethyl)-1H-imidazo[4,5-c]pyridin-1-yl]-3-{[2-(trifluoromethyl)benzyl]oxy}thiophene-2-carboxamide], the IC50 lay within 10 to 100 nM. With `C[C@@H](Oc1cc(-n2cnc3cnc(CN4CCN(C(=O)N(C)C)CC4)cc32)sc1C(N)=O)c1ccccc1Cl` [Example 128, 4-[(1-{5-carbamoyl-4-[(1R)-1-(2-chlorophenyl)ethoxy]-2-thienyl}-1H-imidazo[4,5-c]pyridin-6-yl)methyl]-N,N-dimethylpiperazine-1-carboxamide], the IC50 was under 10 nM. For the compound `COc1ccc2ncn(-c3cc(OCc4ccccc4C(F)(F)F)c(C(N)=O)s3)c2n1` [Example 22, 5-(5-methoxy-3H-imidazo[4,5-b]pyridin-3-yl)-3-{[2-(trifluoromethyl)benzyl]oxy}thiophene-2-carboxamide], the IC50 is under 10 nM.

On to `C[C@@H](Oc1cc(-n2cnc3cnc(CN4CCN(S(=O)(=O)c5ccccc5)CC4)cc32)sc1C(N)=O)c1ccccc1C(F)(F)F` [Example 58, 5-(6-{[4-(phenylsulfonyl)piperazin-1-yl]methyl}-1H-imidazo[4,5-c]pyridin-1-yl)-3-{(1R)-1-[2-(trifluoromethyl)phenyl]ethoxy}thiophene-2-carboxamide], for which the IC50 lay within 10 to 100 nM. Consider `C[C@@H](Oc1cc(-n2cnc3cnc(CN4CCC(N(C)C)CC4)cc32)sc1C(N)=O)c1ccccc1C(F)(F)F` [Example 65, 5-(6-{[4-(dimethylamino)piperidin-1-yl]methyl}-1H-imidazo[4,5-c]pyridin-1-yl)-3-{(1R)-1-[2-(trifluoromethyl)phenyl]ethoxy}thiophene-2-carboxamide], for which the IC50 is under 10 nM.

In the case of `C[C@@H](Oc1cc(-n2cnc3cnc(CN4CCN(C(=O)c5ccccc5)CC4)cc32)sc1C(N)=O)c1ccccc1C(F)(F)F` [Example 78, 5-{6-[(4-benzoylpiperazin-1-yl)methyl]-1H-imidazo[4,5-c]pyridin-1-yl}-3-{(1R)-1-[2-(trifluoromethyl)phenyl]ethoxy}thiophene-2-carboxamide], the IC50 was 10 to 100 nM. The same measure for `CCC(Oc1cc(-n2cnc3cnc(CN4CCN(CC)CC4)cc32)sc1C(N)=O)c1ccccc1Cl` (stereo not drawn) [Example 142]: under 10 nM. `C[C@@H](Oc1cc(-n2cnc3cnc(CN4CCN(CC(=O)N5CCCC5)CC4)cc32)sc1C(N)=O)c1ccccc1C(F)(F)F` [Example 145, 5-(6-{[4-(2-oxo-2-pyrrolidin-1-ylethyl)piperazin-1-yl]methyl}-1H-imidazo[4,5-c]pyridin-1-yl)-3-{(1R)-1-[2-(trifluoromethyl)phenyl]ethoxy}thiophene-2-carboxamide]: the IC50 lay within 10 to 100 nM. The same measure for `C[C@@H](Oc1cc(-n2cnc3cnc(CN4CCN(C)CC4)cc32)sc1C(N)=O)c1ccccc1Br` [Example 98, 3-[(1R)-1-(2-bromophenyl)ethoxy]-5-{6-[(4-methylpiperazin-1-yl)methyl]-1H-imidazo[4,5-c]pyridin-1-yl}thiophene-2-carboxamide]: under 10 nM; for `NC(=O)c1sc(-n2cnc3cnc(C(=O)NCCN4CCOCC4)cc32)cc1OCc1ccccc1C(F)(F)F` [Example 5, 1-(5-Carbamoyl-4-{[2-(trifluoromethyl)benzyl]oxy}-2-thienyl)-N-(2-morpholin-4-ylethyl)-1H-imidazo[4,5-c]pyridine-6-carboxamide]: 100 to 1000 nM; for `NC(=O)c1sc(-n2cnc3cccnc32)cc1OCc1ccccc1C(F)(F)F` [Example 19, 5-(3H-Imidazo[4,5-b]pyridin-3-yl)-3-{[2-(trifluoromethyl)benzyl]oxy}thio-phene-2-carboxamide]: 10 to 100 nM. The same measure for `C[C@@H](Oc1cc(-n2cnc3cnc(CN4CCN(C(=O)C(F)(F)F)CC4)cc32)sc1C(N)=O)c1ccccc1C(F)(F)F` [Example 159, 5-(6-{[4-(trifluoroacetyl)piperazin-1-yl]methyl}-1H-imidazo[4,5-c]pyridin-1-yl)-3-{(1R)-1-[2-(trifluoromethyl)phenyl]ethoxy}thiophene-2-carboxamide]: 10 to 100 nM; for `C[C@@H](Oc1cc(-n2cnc3ccncc32)sc1C(N)=O)c1ccccc1Cl` [Example 32, 3-[(1R)-1-(2-chlorophenyl)ethoxy]-5-(3H-imidazo[4,5-c]pyridin-3-yl)thiophene-2-carboxamide]: under 10 nM; for `C[C@@H](Oc1cc(-n2cnc3cc(CNS(C)(=O)=O)ncc32)sc1C(N)=O)c1ccccc1C(F)(F)F` [Example 90, 5-(6-{[(methylsulfonyl)amino]methyl}-3H-imidazo[4,5-c]pyridin-3-yl)-3-{(1R)-1-[2-(trifluoromethyl)phenyl]ethoxy}thiophene-2-carboxamide]: 10 to 100 nM. For the compound `C[C@@H](Oc1cc(-n2cnc3cnc(CN4CCN(c5cnccn5)CC4)cc32)sc1C(N)=O)c1ccccc1C(F)(F)F` [Example 84, 5-{6-[(4-pyrazin-2-ylpiperazin-1-yl)methyl]-1H-imidazo[4,5-c]pyridin-1-yl}-3-{(1R)-1-[2-(trifluoromethyl)phenyl]ethoxy}thiophene-2-carboxamide], the IC50 is 10 to 100 nM. With `C[C@@H](Oc1cc(-n2cnc3cnc(CN4CCN(CC(=O)N5CCOCC5)CC4)cc32)sc1C(N)=O)c1ccccc1C(F)(F)F` [Example 124, 5-(6-{[4-(2-morpholin-4-yl-2-oxoethyl)piperazin-1-yl]methyl}-1H-imidazo[4,5-c]pyridin-1-yl)-3-{(1R)-1-[2-(trifluoromethyl)phenyl]ethoxy}thiophene-2-carboxamide], the IC50 lay within 10 to 100 nM.

On to `C[C@@H](Oc1cc(-n2cnc3cnc(CN4CCN(CCN(C)C)CC4)cc32)sc1C(N)=O)c1ccccc1Cl` [Example 132, 3-[(1R)-1-(2-chlorophenyl)ethoxy]-5-[6-({4-[2-(dimethylamino)ethyl]piperazin-1-yl}methyl)-1H-imidazo[4,5-c]pyridin-1-yl]thiophene-2-carboxamide], for which the IC50 lay in the range of 10 to 100 nM. Consider `C[C@@H](Oc1cc(-n2cnc3cnc(CN4CCN(CCO)CC4)cc32)sc1C(N)=O)c1ccccc1Cl` [Example 127, 3-[(1R)-1-(2-chlorophenyl)ethoxy]-5-(6-{[4-(2-hydroxyethyl)piperazin-1-yl]methyl}-1H-imidazo[4,5-c]pyridin-1-yl)thiophene-2-carboxamide], for which the IC50 is under 10 nM. As for `CC(Oc1cc(-n2cnc3cc(CNC4CCC4)ncc32)sc1C(N)=O)c1ccccc1C(F)(F)F` (stereo not drawn) [Example 111, 5-{6-[(cyclobutylamino)methyl]-3H-imidazo[4,5-c]pyridin-3-yl}-3-{-1-[2-(trifluoromethyl)phenyl]ethoxy}thiophene-2-carboxamide], the IC50 lay in the range of 100 to 1000 nM. The same measure for `CC(=O)N1CCN(Cc2cc3c(cn2)ncn3-c2cc(O[C@H](C)c3ccccc3C(F)(F)F)c(C(N)=O)s2)CC1` [Example 118, 5-{6-[(4-acetylpiperazin-1-yl)methyl]-1H-imidazo[4,5-c]pyridin-1-yl}-3-{(1R)-1-[2-(trifluoromethyl)phenyl]ethoxy}thiophene-2-carboxamide]: 10 to 100 nM; for `COCCN1CCN(Cc2cc3c(cn2)ncn3-c2cc(O[C@H](C)c3ccccc3C(F)(F)F)c(C(N)=O)s2)CC1` [Example 69, 5-(6-{[4-(2-methoxyethyl)piperazin-1-yl]methyl}-1H-imidazo[4,5-c]pyridin-1-yl)-3-{(1R)-1-[2-(trifluoromethyl)phenyl]ethoxy}thiophene-2-carboxamide]: under 10 nM. As for `C[C@@H](Oc1cc(-n2cnc3cnc(CN4CCN(C5CCCCC5)CC4)cc32)sc1C(N)=O)c1ccccc1C(F)(F)F` [Example 106, 5-{6-[(4-cyclohexylpiperazin-1-yl)methyl]-1H-imidazo[4,5-c]pyridin-1-yl}-3-{(1R)-1-[2-(trifluoromethyl)phenyl]ethoxy}thiophene-2-carboxamide], the IC50 fell in the range of 10 to 100 nM. The same measure for `C[C@@H](Oc1cc(-n2cnc3cnc(CN4CCN(C)CC4CO)cc32)sc1C(N)=O)c1ccccc1C(F)(F)F` (stereo partly drawn) [Example 126, 5-(6-{[2-(hydroxymethyl)-4-methylpiperazin-1-yl]methyl}-1H-imidazo[4,5-c]pyridin-1-yl)-3-{(1R)-1-[2-(trifluoromethyl)phenyl]ethoxy}thiophene-2-carboxamide]: under 10 nM; for `NC(=O)c1sc(-n2cnc3ccncc32)cc1OCc1ccccc1OC(F)F` [Example 38, 3-{[2-(difluoromethoxy)benzyl]oxy}-5-(3H-imidazo[4,5-c]pyridin-3-yl)thiophene-2-carboxamide]: 10 to 100 nM.
